# Source: US11992475B1, “Application of Z-ligustilide in resisting rotaviruses” (GUANGDONG MEDICAL UNIVERSITY, priority 2023, dated 2024)
# Tests used:
# RV (Wa strain RV) [1] = experiment: Effect of Z-ligustilide in resisting RV adsorption (MTT, MA104 cells); format: cell-based, Rotavirus (RV); settings: for inhibition rate against RV (resisting adsorption): drug 2 h before virus, 48 h
# Description: The drug solution is added in a 96-well culture plate of MA104 cells that grow to a single layer, and each drug solution is added in 6 wells at an amount of 100 μL/well. An equal volume of ribavirin is added to the positive control group, and only an equal volume of DMEM culture solution (without serum) is added to the normal cell control group and the viral control group. Incubation is conducted in 5% CO2 at 37° C. for 2 h. The drug solution is sucked out. Except the normal cell control group, 100TCID50 virus is added (the virus acts with 10 μg/mL pancreatin at 37° C. for 30 min) at an amount of 100 μL/well. Incubation is conducted in 5% CO2 at 37° C. for 2 h. The virus is sucked out, the cell maintenance medium is added at an amount of 200 μL/well. Incubation is conducted in 5% CO2 at 37° C. for continuous observation. After culture for 48 h, an MTT kit is used for detection. 1/10 volume of MTT solution is added in each well and incubated in an incubator. After 4 h, the supernatant is sucked out, DMSO is added, and the absorbance is measured and recorded at a wavelength of 490 nm. The experiment is repeated for 3 times.
# (§1) The formula of the viral inhibition rate is: {(Adrug group−Avirus group)/(Anormal group−Avirus group)×100%}
# MA104 cells = experiment: Toxicity of Z-ligustilide to MA104 cells (MTT assay); format: cell-based; settings: 48 h
# Description: According to the common drug concentration range of Z-ligustilide, the cytotoxicity pre-experiment is performed in the range of 1-100 μM in this experiment. The MA104 cells at the logarithmic phase are observed under a microscope, the cellular morphology is uniform and full with clear edges, and when the number reaches 80%, digestion, centrifugation and re-suspension are conducted. After further dilution, 10 μl of the suspension is taken on a blood cell counting plate to count and calculate the required cell volume. Then, the cells are laid in a 96-well plate, 100 μl of cell suspension is added in each well, and the cell density is 8×10^4 cells/mL. When the cells adhere to the wall to form a single layer, the drug group is administered, and the normal group is added with an equal volume of DMEM (without serum). After incubation for 48 h, the cytotoxicity of Z-ligustilide is detected by MTT reagent. 1/10 volume of MTT solution is added in each well and incubated in an incubator. After 4 h, the solution in the wells is sucked out, 150 μL of DMSO is added in each well, and the absorbance is measured and recorded at a wavelength of 490 nm under the condition of oscillation for 30 s.
# The formula of the relative survival rate of the cells is: {(Aexperimental group−Ablank)/(Acontrol group−Ablank)×100%}
# [2] = test system: structural protein VP6 of RV; experiment: Gene expression level of structural protein VP6 of RV in RV-infected MA104 cells (real time PCR); format: cell-based, Rotavirus (RV), Wa strain; settings: for VP6 expression level compared with the RV group: 48 h, GAPDH internal reference
# Description: (1) To further verify whether Z-ligustilide has an effect of inhibiting RV synthesis, after Z-ligustilide inhibits RV synthesis for 48 h, drug groups of low, medium and high concentrations, the ribavirin group, the N group and the RV group are selected, the supernatant is removed, the solution is washed twice with PBS, 1 ml of Trizol reagent is added, and then the solution is collected into a 1.5 mL enzyme-free EP tube after standing for 5 min. 200 μL of chloroform is added in the tube. After vortex oscillation for 15 s, the solution is stood at room temperature for 3 min, and centrifuged (4° C., 12000 r/min, 15 min). The centrifuged sample is divided into three layers: a colorless upper layer, a white middle layer and a red lower layer.
# (2) The supernatant is carefully sucked into a new 1.5 mL enzyme-free EP tube (with a volume of about 500 μL), and an equal volume of pre-cooled isopropanol is added. The solution is shaken up and down violently, mixed well, stood at 4° C. for 10 min, and centrifuged (4° C., 12000 r/min, 10 min).
# (3) After centrifugation, white precipitate can be seen at the bottom of the EP tube. The supernatant is removed, and the precipitate is retained. 1 mL of the prepared 75% ethanol solution (prepared from anhydrous ethanol and enzyme-free water at a ratio of 3:1) is added, shaken and mixed well, and centrifuged (4° C., 12000 r/min, 5 min). The supernatant is discarded, and the solution is stood at room temperature for 15-20 min for drying.
# (4) After drying, 20 μL of DEPC water is added in the EP tube, and the tube wall is gently blown to dissolve RNA. The RNA concentration of the sample is determined by a NanoDrop micro ultraviolet spectrophotometer, and then the sample can be used directly for the experiment or stored at −80° C. for later use.
# A reaction mixture is prepared on ice according to the following components in a reaction volume of 20 μL in accordance with the instructions of Evo M-MLV RT Kit with gDNA Clean for qPCR II. The consumables used in the experiment are all Axygen enzyme-free consumables.
# Reaction conditions: 42° C. 2 min, 4° C.
# The reaction solution is prepared according to the following table, and the reverse transcription reaction is performed.
# Reaction conditions: 37° C. 15 min, 85° C. 5 sec, 4° C.
# Real time quantitative PCR is used to detect the control group and the RVWa strain-infected group by SYBR Green I fluorescent labeling. SYBR® Green Premix Pro Taq HS qPCR Kit II is used, and GAPDH is selected as the internal reference. In the experiment, dedicated real-time eight-row PCR tubes for Axygen are used for preparing a real-time fluorescence quantitative PCR amplification reaction system according to the following table, and the reaction solution is prepared on ice (the total reaction system is 10 μL).
# RV (Wa strain RV) [3] = experiment: Effect of Z-ligustilide in resisting RV synthesis (MTT, MA104 cells); format: cell-based, Rotavirus (RV); settings: for inhibition rate against RV (resisting biosynthesis): drug after virus, 48 h
# Description: as §1
# 100TCID50 virus solution (the virus acts with 10 μg/mL pancreatin for 30 min) is added in a 96-well culture plate of MA104-2 cells that grow to a single layer, at an amount of 100 μL/well. The cells have been washed twice with PBS. A normal cell control group is set, and added with an equal volume of DMEM culture solution. Incubation is conducted in 5% CO2 at 37° C. for 2 h, the virus solution is sucked out, and drug solution and ribavirin of different concentrations are added respectively at an amount of 100 μL/well. A viral control group is set, and only added with the cell maintenance medium at an amount of 100 μL/well. Incubation is conducted in 5% CO2 at 37° C. for continuous observation. After continuous culture for 48 h, an MTT kit is used for detection. 1/10 volume of MTT solution is added in each well and incubated in an incubator. After 4 h, the supernatant is sucked out, DMSO is added, and the absorbance is measured and recorded at a wavelength of 490 nm. The experiment is repeated for 3 times. The viral inhibition rate of the drug is calculated.
# RV (Wa strain RV) [4] = experiment: Effect of Z-ligustilide in directly killing RV (MTT, MA104 cells); format: cell-based, Rotavirus (RV); settings: for inhibition rate against RV (directly killing): drug mixed with virus 2 h, 48 h
# Description: The drug is mixed with 100TCID50 virus solution (the virus acts with 10 μg/mL pancreatin for 30 min) at an equal volume to act for 2 h. After the cells are washed twice with PBS, the cells are added in a 96-well culture plate of MA104 cells that grow to a single layer. The same operation as above is conducted for ribavirin and RV in the positive control group, and only an equal volume of DMEM is added to the normal cell control group and the viral control group. Incubation is conducted in 5% CO2 at 37° C. for 2 h, the mixed solution is sucked out, and the cell maintenance medium is added at an amount of 100 μL/well. Incubation is conducted in 5% CO2 at 37° C. for continuous observation. After continuous culture for 48 h, an MTT kit is used for detection. 1/10 volume of MTT solution is added in each well and incubated in an incubator. After 4 h, the supernatant is sucked out, DMSO is added, and the absorbance is measured and recorded at a wavelength of 490 nm. The experiment is repeated for 3 times. The viral inhibition rate of the drug is calculated. The formula of the viral inhibition rate is: {(Adrug group−Avirus group)/(Anormal group−Avirus group)×100%}
# [5] = 1st of six values printed for 65-90 μM
# [6] = 2nd of six values printed for 65-90 μM
# [7] = 3rd of six values printed for 65-90 μM
# [8] = 4th of six values printed for 65-90 μM
# [9] = 5th of six values printed for 65-90 μM
# [10] = 6th of six values printed for 65-90 μM
compound,measurement,setting,value
CCC/C=C1\OC(=O)C2=C1CCC=C2 [Z-ligustilide],inhibition rate against RV (resisting adsorption),RV (Wa strain RV) [1]; [5],4.85%
same,inhibition rate against RV (resisting adsorption),RV (Wa strain RV) [1]; [6],4.55%
same,inhibition rate against RV (resisting adsorption),RV (Wa strain RV) [1]; [7],1.14%
same,inhibition rate against RV (resisting adsorption),RV (Wa strain RV) [1]; [8],3.95%
same,inhibition rate against RV (resisting adsorption),RV (Wa strain RV) [1]; [9],3.01%
same,inhibition rate against RV (resisting adsorption),RV (Wa strain RV) [1]; [10],4.69%
same,effect of resisting RV adsorption,RV (Wa strain RV) [1]; 65-90 μM,no obvious effect
same,maximum inhibition rate (resisting adsorption),RV (Wa strain RV) [1]; within 65-90 μM,about 4.85%
same,drug toxicity to the cells,MA104 cells; 60-95 μM,no drug toxicity
same,cell viability versus the normal group,MA104 cells; 65-90 μM,no significant difference
same,average survival rate,MA104 cells; drug concentration 60-95 μM,more than 95%
same,VP6 expression level compared with the RV group,[2]; 75 μM,significantly decreased
same,VP6 expression level compared with the RV group,[2]; 80 μM,significantly decreased
same,VP6 expression level compared with the RV group,[2]; 85 μM,significantly decreased
same,concentration at which VP6 expression is inhibited most significantly,"[2]; among 75 μM, 80 μM and 85 μM",75 µM
same,effect of inhibiting RV biosynthesis,RV (Wa strain RV) [3],has an effect of inhibiting RV biosynthesis
same,inhibition rate against RV (resisting biosynthesis),"RV (Wa strain RV) [3]; 80 µM, without statistical difference from the ribavirin group",64.21%
same,inhibition of rotavirus biosynthesis,RV (Wa strain RV) [3]; 70-85 μM,can effectively inhibit rotavirus biosynthesis
same,inhibition rate against RV (resisting biosynthesis),RV (Wa strain RV) [3]; 70-85 μM,more than 50%
same,inhibition rate against RV (directly killing),RV (Wa strain RV) [4]; [5],2.32%
same,inhibition rate against RV (directly killing),RV (Wa strain RV) [4]; [6],3.25%
same,inhibition rate against RV (directly killing),RV (Wa strain RV) [4]; [7],0.93%
same,inhibition rate against RV (directly killing),RV (Wa strain RV) [4]; [8],0.4%
same,inhibition rate against RV (directly killing),RV (Wa strain RV) [4]; [9],6.45%
same,inhibition rate against RV (directly killing),RV (Wa strain RV) [4]; [10],5.89%
same,effect of directly killing RV,RV (Wa strain RV) [4]; 65-90 μM,no obvious effect
